Patent US10933032B2, “Methods for the treatment of cancer using coenzyme Q10 combination therapies” (Berg LLC, priority 2013, dated 2021)

How the values were obtained:
[1] = tested on: MIAPaCa-2 human pancreatic tumor cells; test: Xenogeneic mouse human pancreatic cancer model, survival; format: in vivo, NOD scid gamma (NSG) mice; conditions: Example 1, Regimen 1, single agent: IV 4% Coenzyme Q10 50 mg/kg/day, or IV gemcitabine 150 mg/kg/week for 3 weeks with one week rest; FIG. 1
[2] = tested on: MIAPaCa-2 human pancreatic tumor cells; test: Xenogeneic mouse human pancreatic cancer model, tumors harvested at mortality (size, weight, vasculature, palpation); format: in vivo, NOD scid gamma (NSG) mice; conditions: Example 1, single agents: Group 2 Coenzyme Q10 IV 50 mg/kg/day; Group 3 gemcitabine 150 mg/kg/week; FIG. 2
[3] = tested on: acute lymphoblastic leukemias; conditions: in combination with 60 mg/m^2 of prednisone, given daily; usually within 4 to 6 weeks; cited from earlier work
[4] = tested on: Mycosis fungoides (cutaneous T Cell lymphoma); conditions: methotrexate as a single agent; cited from earlier work

| Compound | Survival (prolongation of life) compared to untreated control [1] | Growth of pancreatic tumors (tumor size at time of death) vs control [2] | Remissions, patients treated [3] | Clinical responses, patients treated [4] |
| --- | --- | --- | --- | --- |
| Nc1ccn([C@@H]2O[C@H](CO)[C@@H](O)C2(F)F)c(=O)n1 [gemcitabine, reference compound] | prolongation of life as compared to untreated control | inhibited the growth of pancreatic tumors |  |  |
| CN(Cc1cnc2nc(N)nc(N)c2n1)c1ccc(C(=O)N[C@@H](CCC(=O)O)C(=O)O)cc1 [Methotrexate] |  |  | prednisone, given daily, produced remissions in 50% of patients treated, | 50% of patients treated. Dosage in early stages is usually 5 to 50 mg once |
